Laboratory results as given in ChEMBL document CHEMBL1759834, “Synthesis, stereochemistry, antimicrobial evaluation and QSAR studies of 2,6-diaryltetrahydropyran-4-one thiosemicarbazones” (2011).
Values after ≈ are worked out from the molar mass of the structure shown.

What was measured:
Candida albicans = assay: Antifungal activity against Candida albicans after 24 hrs by twofold serial dilution method; assay type: functional; settings: for MIC: Candida albicans, 24 h
Klebsiella pneumoniae = assay: Antibacterial activity against Klebsiella pneumoniae ATCC 15490 after 24 hrs by twofold serial dilution method; assay type: functional; settings: for MIC: Klebsiella pneumoniae, ATCC 15490, 24 h
Pseudomonas aeruginosa = assay: Antibacterial activity against Pseudomonas aeruginosa ATCC 10145 after 24 hrs by twofold serial dilution method; assay type: functional; settings: for MIC: Pseudomonas aeruginosa, ATCC 10145, 24 h
Bacillus subtilis = assay: Antibacterial activity against Bacillus subtilis ATCC 451 after 24 hrs by twofold serial dilution method; assay type: functional; settings: for MIC: Bacillus subtilis, ATCC 451, 24 h
Escherichia coli = assay: Antibacterial activity against Escherichia coli ATCC 25835 after 24 hrs by twofold serial dilution method; assay type: functional; settings: for MIC: Escherichia coli, ATCC 25835, 24 h
Aspergillus niger = assay: Antifungal activity against Aspergillus niger after 72 to 96 hrs by twofold serial dilution method; assay type: functional; settings: for MIC: Aspergillus niger
Cryptococcus neoformans = assay: Antifungal activity against Cryptococcus neoformans after 72 to 96 hrs by twofold serial dilution method; assay type: functional; settings: for MIC: Cryptococcus neoformans
Staphylococcus aureus = assay: Antibacterial activity against Staphylococcus aureus ATCC 25825 after 24 hrs by twofold serial dilution method; assay type: functional; settings: for MIC: Staphylococcus aureus, ATCC 25825, 24 h
Salmonella typhi = assay: Antibacterial activity against Salmonella typhi ATCC 24915 after 24 hrs by twofold serial dilution method; assay type: functional, Salmonella enterica subsp. enterica serovar Typhi; settings: for MIC: Salmonella enterica, ATCC 24915, 24 h

Cc1ccc([C@H]2O[C@@H](c3ccc(C)cc3)[C@H](C)/C(=N/NC(N)=S)[C@H]2C)cc1
-logMIC (Candida albicans): 4
MIC (Candida albicans): 100 µg/mL (≈ 262 µM)
-logMIC (Klebsiella pneumoniae): 4
MIC (Klebsiella pneumoniae): 100 µg/mL (≈ 262 µM)
-logMIC (Pseudomonas aeruginosa): 4
MIC (Pseudomonas aeruginosa): 100 µg/mL (≈ 262 µM)
-logMIC (Bacillus subtilis): 4.301
MIC (Bacillus subtilis): 50 µg/mL (≈ 131 µM)
-logMIC (Escherichia coli): 4.602
MIC (Escherichia coli): 25 µg/mL (≈ 65.5 µM)
-logMIC (Aspergillus niger): 4.301
MIC (Aspergillus niger): 50 µg/mL (≈ 131 µM)
-logMIC (Cryptococcus neoformans): 4
MIC (Cryptococcus neoformans): 100 µg/mL (≈ 262 µM)
-logMIC (Staphylococcus aureus): 4.301
MIC (Staphylococcus aureus): 50 µg/mL (≈ 131 µM)
MIC (Salmonella typhi): 50 µg/mL (≈ 131 µM)

C[C@@H]1/C(=N/NC(N)=S)C[C@@H](c2ccccc2)O[C@H]1c1ccccc1
-logMIC (Candida albicans): 3.698
MIC (Candida albicans): 200 µg/mL (≈ 589 µM)
-logMIC (Klebsiella pneumoniae): 4
MIC (Klebsiella pneumoniae): 100 µg/mL (≈ 295 µM)
-logMIC (Pseudomonas aeruginosa): 3.698
MIC (Pseudomonas aeruginosa): 200 µg/mL (≈ 589 µM)
-logMIC (Cryptococcus neoformans): 4.301
MIC (Cryptococcus neoformans): 50 µg/mL (≈ 147 µM)
-logMIC (Staphylococcus aureus): 4
MIC (Staphylococcus aureus): 100 µg/mL (≈ 295 µM)
MIC (Salmonella typhi): 50 µg/mL (≈ 147 µM)

CC[C@@H]1/C(=N/NC(N)=S)C[C@@H](c2ccccc2)O[C@H]1c1ccccc1
-logMIC (Candida albicans): 3.698
MIC (Candida albicans): 200 µg/mL (≈ 566 µM)
-logMIC (Klebsiella pneumoniae): 4
MIC (Klebsiella pneumoniae): 100 µg/mL (≈ 283 µM)
-logMIC (Pseudomonas aeruginosa): 4
MIC (Pseudomonas aeruginosa): 100 µg/mL (≈ 283 µM)
-logMIC (Bacillus subtilis): 4.301
MIC (Bacillus subtilis): 50 µg/mL (≈ 141 µM)
-logMIC (Escherichia coli): 4.602
MIC (Escherichia coli): 25 µg/mL (≈ 70.7 µM)
-logMIC (Aspergillus niger): 3.698
MIC (Aspergillus niger): 200 µg/mL (≈ 566 µM)
-logMIC (Cryptococcus neoformans): 4.301
MIC (Cryptococcus neoformans): 50 µg/mL (≈ 141 µM)
-logMIC (Staphylococcus aureus): 4.301
MIC (Staphylococcus aureus): 50 µg/mL (≈ 141 µM)
MIC (Salmonella typhi): 50 µg/mL (≈ 141 µM)

C[C@@H]1/C(=N\NC(N)=S)[C@@H](C)[C@H](c2ccc(F)cc2)O[C@@H]1c1ccc(F)cc1
-logMIC (Candida albicans): 4
MIC (Candida albicans): 100 µg/mL (≈ 257 µM)
-logMIC (Klebsiella pneumoniae): 4.301
MIC (Klebsiella pneumoniae): 50 µg/mL (≈ 128 µM)
-logMIC (Pseudomonas aeruginosa): 4
MIC (Pseudomonas aeruginosa): 100 µg/mL (≈ 257 µM)
-logMIC (Bacillus subtilis): 4.602
MIC (Bacillus subtilis): 25 µg/mL (≈ 64.2 µM)
-logMIC (Escherichia coli): 4.301
MIC (Escherichia coli): 50 µg/mL (≈ 128 µM)
-logMIC (Aspergillus niger): 4
MIC (Aspergillus niger): 100 µg/mL (≈ 257 µM)
-logMIC (Cryptococcus neoformans): 4.602
MIC (Cryptococcus neoformans): 25 µg/mL (≈ 64.2 µM)
-logMIC (Staphylococcus aureus): 4.301
MIC (Staphylococcus aureus): 50 µg/mL (≈ 128 µM)
MIC (Salmonella typhi): 25 µg/mL (≈ 64.2 µM)

C[C@@H]1/C(=N\NC(N)=S)[C@@H](C)[C@H](c2ccc(Cl)cc2)O[C@@H]1c1ccc(Cl)cc1
-logMIC (Candida albicans): 4.602
MIC (Candida albicans): 25 µg/mL (≈ 59.2 µM)
-logMIC (Klebsiella pneumoniae): 4.602
MIC (Klebsiella pneumoniae): 25 µg/mL (≈ 59.2 µM)
-logMIC (Pseudomonas aeruginosa): 4.301
MIC (Pseudomonas aeruginosa): 50 µg/mL (≈ 118 µM)
-logMIC (Bacillus subtilis): 4.602
MIC (Bacillus subtilis): 25 µg/mL (≈ 59.2 µM)
-logMIC (Escherichia coli): 4.301
MIC (Escherichia coli): 50 µg/mL (≈ 118 µM)
-logMIC (Aspergillus niger): 4
MIC (Aspergillus niger): 100 µg/mL (≈ 237 µM)
-logMIC (Cryptococcus neoformans): 4.602
MIC (Cryptococcus neoformans): 25 µg/mL (≈ 59.2 µM)
-logMIC (Staphylococcus aureus): 4.602
MIC (Staphylococcus aureus): 25 µg/mL (≈ 59.2 µM)
MIC (Salmonella typhi): 25 µg/mL (≈ 59.2 µM)

C[C@@H]1/C(=N\NC(N)=S)[C@@H](C)[C@H](c2ccc(Br)cc2)O[C@@H]1c1ccc(Br)cc1
-logMIC (Candida albicans): 4.301
MIC (Candida albicans): 50 µg/mL (≈ 97.8 µM)
-logMIC (Klebsiella pneumoniae): 4.602
MIC (Klebsiella pneumoniae): 25 µg/mL (≈ 48.9 µM)
-logMIC (Pseudomonas aeruginosa): 4.903
MIC (Pseudomonas aeruginosa): 12.5 µg/mL (≈ 24.4 µM)
-logMIC (Bacillus subtilis): 4.301
MIC (Bacillus subtilis): 50 µg/mL (≈ 97.8 µM)
-logMIC (Escherichia coli): 4.301
MIC (Escherichia coli): 50 µg/mL (≈ 97.8 µM)
-logMIC (Aspergillus niger): 3.698
MIC (Aspergillus niger): 200 µg/mL (≈ 391 µM)
-logMIC (Cryptococcus neoformans): 4.301
MIC (Cryptococcus neoformans): 50 µg/mL (≈ 97.8 µM)
-logMIC (Staphylococcus aureus): 4.602
MIC (Staphylococcus aureus): 25 µg/mL (≈ 48.9 µM)
MIC (Salmonella typhi): 25 µg/mL (≈ 48.9 µM)

COc1ccc([C@H]2O[C@@H](c3ccc(OC)cc3)[C@H](C)/C(=N/NC(N)=S)[C@H]2C)cc1
-logMIC (Candida albicans): 4.903
MIC (Candida albicans): 12.5 µg/mL (≈ 30.2 µM)
-logMIC (Klebsiella pneumoniae): 4.301
MIC (Klebsiella pneumoniae): 50 µg/mL (≈ 121 µM)
-logMIC (Pseudomonas aeruginosa): 4.301
MIC (Pseudomonas aeruginosa): 50 µg/mL (≈ 121 µM)
-logMIC (Bacillus subtilis): 4.903
MIC (Bacillus subtilis): 12.5 µg/mL (≈ 30.2 µM)
-logMIC (Escherichia coli): 4.602
MIC (Escherichia coli): 25 µg/mL (≈ 60.5 µM)
-logMIC (Aspergillus niger): 4.301
MIC (Aspergillus niger): 50 µg/mL (≈ 121 µM)
-logMIC (Cryptococcus neoformans): 3.698
MIC (Cryptococcus neoformans): 200 µg/mL (≈ 484 µM)
-logMIC (Staphylococcus aureus): 4.903
MIC (Staphylococcus aureus): 12.5 µg/mL (≈ 30.2 µM)
MIC (Salmonella typhi): 50 µg/mL (≈ 121 µM)

C[C@@H]1/C(=N/NC(=S)Nc2ccccc2)C[C@@H](c2ccccc2)O[C@H]1c1ccccc1
-logMIC (Candida albicans): 4
MIC (Candida albicans): 100 µg/mL (≈ 241 µM)
-logMIC (Klebsiella pneumoniae): 4
MIC (Klebsiella pneumoniae): 100 µg/mL (≈ 241 µM)
-logMIC (Pseudomonas aeruginosa): 4.301
MIC (Pseudomonas aeruginosa): 50 µg/mL (≈ 120 µM)
-logMIC (Bacillus subtilis): 4.301
MIC (Bacillus subtilis): 50 µg/mL (≈ 120 µM)
-logMIC (Escherichia coli): 4.301
MIC (Escherichia coli): 50 µg/mL (≈ 120 µM)
-logMIC (Aspergillus niger): 4
MIC (Aspergillus niger): 100 µg/mL (≈ 241 µM)
-logMIC (Cryptococcus neoformans): 4.903
MIC (Cryptococcus neoformans): 12.5 µg/mL (≈ 30.1 µM)
-logMIC (Staphylococcus aureus): 4.301
MIC (Staphylococcus aureus): 50 µg/mL (≈ 120 µM)
-logMIC (Salmonella typhi): 4
MIC (Salmonella typhi): 100 µg/mL (≈ 241 µM)

CC[C@@H]1/C(=N/NC(=S)Nc2ccccc2)C[C@@H](c2ccccc2)O[C@H]1c1ccccc1
-logMIC (Candida albicans): 4
MIC (Candida albicans): 100 µg/mL (≈ 233 µM)
-logMIC (Klebsiella pneumoniae): 4
MIC (Klebsiella pneumoniae): 100 µg/mL (≈ 233 µM)
-logMIC (Pseudomonas aeruginosa): 4.602
MIC (Pseudomonas aeruginosa): 25 µg/mL (≈ 58.2 µM)
-logMIC (Bacillus subtilis): 4
MIC (Bacillus subtilis): 100 µg/mL (≈ 233 µM)
-logMIC (Escherichia coli): 4
MIC (Escherichia coli): 100 µg/mL (≈ 233 µM)
-logMIC (Aspergillus niger): 4.301
MIC (Aspergillus niger): 50 µg/mL (≈ 116 µM)
-logMIC (Cryptococcus neoformans): 4.903
MIC (Cryptococcus neoformans): 12.5 µg/mL (≈ 29.1 µM)
-logMIC (Staphylococcus aureus): 4.301
MIC (Staphylococcus aureus): 50 µg/mL (≈ 116 µM)
MIC (Salmonella typhi): 50 µg/mL (≈ 116 µM)

C[C@@H]1/C(=N\NC(=S)Nc2ccccc2)[C@@H](C)[C@H](c2ccc(F)cc2)O[C@@H]1c1ccc(F)cc1
-logMIC (Candida albicans): 4
MIC (Candida albicans): 100 µg/mL (≈ 215 µM)
-logMIC (Klebsiella pneumoniae): 4.301
MIC (Klebsiella pneumoniae): 50 µg/mL (≈ 107 µM)
-logMIC (Pseudomonas aeruginosa): 4.903
MIC (Pseudomonas aeruginosa): 12.5 µg/mL (≈ 26.8 µM)
-logMIC (Bacillus subtilis): 4.301
MIC (Bacillus subtilis): 50 µg/mL (≈ 107 µM)
-logMIC (Escherichia coli): 4
MIC (Escherichia coli): 100 µg/mL (≈ 215 µM)
-logMIC (Aspergillus niger): 4
MIC (Aspergillus niger): 100 µg/mL (≈ 215 µM)
-logMIC (Cryptococcus neoformans): 5.204
MIC (Cryptococcus neoformans): 6.25 µg/mL (≈ 13.4 µM)
-logMIC (Staphylococcus aureus): 4.301
MIC (Staphylococcus aureus): 50 µg/mL (≈ 107 µM)
-logMIC (Salmonella typhi): 4.602
MIC (Salmonella typhi): 25 µg/mL (≈ 53.7 µM)

Cc1ccc([C@H]2O[C@@H](c3ccc(C)cc3)[C@H](C)/C(=N/NC(=S)Nc3ccccc3)[C@H]2C)cc1
-logMIC (Candida albicans): 5.204
MIC (Candida albicans): 6.25 µg/mL (≈ 13.7 µM)
-logMIC (Pseudomonas aeruginosa): 4
MIC (Pseudomonas aeruginosa): 100 µg/mL (≈ 219 µM)
-logMIC (Bacillus subtilis): 4.301
MIC (Bacillus subtilis): 50 µg/mL (≈ 109 µM)
-logMIC (Escherichia coli): 4.301
MIC (Escherichia coli): 50 µg/mL (≈ 109 µM)
-logMIC (Aspergillus niger): 4.602
MIC (Aspergillus niger): 25 µg/mL (≈ 54.6 µM)
-logMIC (Cryptococcus neoformans): 4.301
MIC (Cryptococcus neoformans): 50 µg/mL (≈ 109 µM)
-logMIC (Staphylococcus aureus): 4
MIC (Staphylococcus aureus): 100 µg/mL (≈ 219 µM)
MIC (Salmonella typhi): 50 µg/mL (≈ 109 µM)

C[C@@H]1[C@H](O)[C@@H](C)/C=C/C=C/C=C/C=C/C=C/C=C/C=C/[C@H](O[C@@H]2O[C@H](C)[C@@H](O)[C@H](N)[C@@H]2O)C[C@@H]2O[C@](O)(C[C@@H](O)C[C@@H](O)[C@H](O)CC[C@@H](O)C[C@@H](O)CC(=O)O[C@H]1C)C[C@H](O)[C@H]2C(=O)O [AMPHOTERICIN B]
MIC (Candida albicans): 25 µg/mL (≈ 27.1 µM)
-logMIC (Aspergillus niger): 4.301
MIC (Aspergillus niger): 50 µg/mL (≈ 54.1 µM)
-logMIC (Cryptococcus neoformans): 4.602
MIC (Cryptococcus neoformans): 25 µg/mL (≈ 27.1 µM)
